Source: US20220071944A1, “Combination Treatment for Solid Tumors Using Docetaxel and a CYP3A Inhibitor” (Modra Pharmaceuticals B.V., priority 2018, published 2022)
Read-outs that look alike come from different tables or passages of the source.

Columns and labels:
[1] = Phase IB/IIA trial M17DOC in mCRPC: docetaxel plasma pharmacokinetics; design: species or system human; details: in vivo, po
Procedure: A multicenter clinical phase IB/IIA study was conducted in mCRPC (M17DOC), wherein ModraDoc006, an oral docetaxel formulation was combined with ritonavir (ModraDoc006/r), in metastasized castration-resistant prostate cancer (mCRPC).
The study included patients diagnosed with metastasized castration-resistant prostate cancer (mCRPC), dosed in a bi-daily once weekly (BIDW) dosing schedule at 4 dose levels (see table below).

[2] = Weekly intravenous docetaxel 35 mg/m2 pharmacokinetics (Baker et al. 2004); assay type: in vivo, human; details: 35 mg/m2 in 0.5 h vs oral in patients with solid tumors (not prostate)
[3] = IV docetaxel AUC in mCRPC vs other tumors (De Vries Schultink et al. meta-analysis); assay type: in vivo, human
[4] = weekly docetaxel 35 mg/m2 as 0.5 h intravenous infusion; cited from earlier work
[5] = every three weeks IV; cited from earlier work

docetaxel clearance in mCRPC patients vs patients with other solid tumors [1]: higher clearance
CMAX of intravenous docetaxel relative to oral ModraDoc006/r 30-20/100-100 [2]: ten-fold higher
ratio of AUCs for IV docetaxel in mCPRC patients vs other tumors ([3]; 1820/3300): 55%
AUC ([3]; male, human, in vivo, iv, weekly equivalent, mCRPC, read-out: weekly AUC of IV docetaxel in mCRPC patients (q3w AUC divided by 3)): ~600 ng·h/mL
SMILES: CC(=O)O[C@@]12CO[C@@H]1C[C@H](O)[C@@]1(C)C(=O)[C@H](O)C3=C(C)[C@@H](OC(=O)[C@H](O)[C@@H](NC(=O)OC(C)(C)C)c4ccccc4)C[C@@](O)([C@@H](OC(=O)c4ccccc4)[C@H]21)C3(C)C [docetaxel]
AUC [4]: 480 ± 410 ng·h/mL
CMAX [4]: 1930 ± 600 ng/mL
q3w AUC of IV docetaxel in mCRPC patients [5]: 1820 ng·h/mL
